Assay results as given in patent publication US11974997B2, “RORgamma modulators and uses thereof” (Genfit, priority 2017, dated 2024).

Experiments:
human RORγt = target: T1, human RORγt (Homo sapiens, UniProt P51449); assay: RORE Luciferase/RORγt transactivation assay; type: cell-based; conditions: COS-7 cells, human IL-17 promoter reporter + RORγt plasmid, 20 h; read-out: IC50, inhibition of RORγt activity (luciferase)
T1 construct: the full-length cDNA of human RORγt; expressed in transfected cells; host or cells: COS-7 (monkey kidney)
T1 sequence (P51449 1-497 isoform P51449-2): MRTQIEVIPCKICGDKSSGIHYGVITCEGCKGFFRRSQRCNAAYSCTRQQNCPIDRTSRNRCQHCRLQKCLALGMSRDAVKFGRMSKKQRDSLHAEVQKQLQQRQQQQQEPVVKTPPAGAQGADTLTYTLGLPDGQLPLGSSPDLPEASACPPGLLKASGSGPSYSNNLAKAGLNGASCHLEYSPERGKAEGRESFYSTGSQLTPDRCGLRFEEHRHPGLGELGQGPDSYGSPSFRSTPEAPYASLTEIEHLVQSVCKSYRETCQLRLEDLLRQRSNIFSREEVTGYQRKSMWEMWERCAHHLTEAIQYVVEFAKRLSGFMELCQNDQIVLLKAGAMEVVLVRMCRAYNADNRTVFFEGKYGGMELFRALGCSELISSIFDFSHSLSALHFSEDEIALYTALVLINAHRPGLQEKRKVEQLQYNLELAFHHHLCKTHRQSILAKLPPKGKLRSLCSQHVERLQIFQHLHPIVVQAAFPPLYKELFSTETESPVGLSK
Method: It is well known that RORγ binds to a conserved non-coding sequence (CNS) enhancer element in the IL-17 promoter.
Culture medium was changed every 2 days.
The 4.3 Kb human IL-17 promoter containing the RORγ-specific CNS enhancer element was PCR amplified from human genomic DNA and cloned into a pGL3-TKLuc2Cp reporter plasmid.
The luciferase reporter plasmid and the RORγt overexpression plasmid were transfected into COS-7 cell line using 4 μLJetPEITM/μg of DNA. Briefly, 150 ng of DNA (ration ½ between RORE-Tk Luc2Cp and cDNA RORγt or the empty vector for the negative control) was served to transfect adherent COS-7 cells in a […] culture flask, in complete medium (see cos-7 cell line culture).
Cells were then detached (using trypsin) and washed by centrifugation at 300 g for 10 minutes. Cell pellet was resuspended in serum free/phenol red free DMEM and seeded in 384 well plates at a density of 10000 cells/well and then incubated for 4h at 37° C.
Compounds were dissolved in 100% DMSO to obtain 10 mM stock solutions. For each compound, test concentrations were diluted in serum free/phenol red free DMEM using the Genesis Freedom 200™ (TECAN) and added to the cells to obtain a 0.3% DMSO final concentration (in a final volume of 40 μL per well).
The luciferase activity was then measured with 40 μL/well steady-Glo Luciferase assay system (Promega, Madison, WI) and after incubation at room temperature for 30 minutes. The luminescence was estimated using the Ultra384 reader (TECAN). Data were collected and analyzed using GraphPad Prism software (GraphPad Software V5.02, San Diego California USA). IC50 in μM and Emax in % were reported for each compound.

[1] = target: T2, RORγt ligand-binding domain (RORγt-LBD) (Homo sapiens, UniProt P51449); assay: Time-resolved FRET (TR-FRET) RORγt coactivator assay; type: biochemical; conditions: GST-RORγ-LBD, biotinylated RIP140 peptide, 2 hours; read-out: IC50, coactivator displacement
T2 construct: 20 nM recombinantly expressed RORγ-LBD fused to GST
T2 sequence (P51449 269-508 limits assumed): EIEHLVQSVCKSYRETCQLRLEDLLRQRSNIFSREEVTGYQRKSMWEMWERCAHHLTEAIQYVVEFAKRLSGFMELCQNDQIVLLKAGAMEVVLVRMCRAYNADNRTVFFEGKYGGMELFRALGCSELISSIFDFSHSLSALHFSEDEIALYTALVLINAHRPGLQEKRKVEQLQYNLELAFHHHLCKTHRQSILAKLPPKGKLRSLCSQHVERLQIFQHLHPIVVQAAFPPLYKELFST
Source text: Time-resolved FRET (TR-FRET) RORγt coactivator assay was used to identify RORγ modulator compounds with ligand-dependent coactivator displacement. The assay uses a d2-labeled anti-GST antibody, synthetic N-terminally biotinylated peptide which is derived from nuclear receptor coactivator protein RIP140, and a RORγt ligand-binding domain (RORγt-LBD) that is tagged with glutathione-S-transferase (GST). The influence of compounds on the RORγ-peptide interaction relies on the binding dependent energy transfer from a donor to an acceptor fluorophor attached to the binding partner of interest. […] For reduction of background from compound fluorescence, TR-FRET method makes use of generic fluorophore labels and time resolved detection.
The assays were done in a final volume of 20 μl in a 384 well plate in a CHAPS buffer (2 mM CHAPS; 1 mM DTT, 2 mM EDTA; 0.1% BSA), containing 20 nM recombinantly expressed RORγ-LBD fused to GST, 30 nM N-terminally biotinylated peptide, 1 nM streptavidin-terbium conjugate and 20 nM d2 labeled-anti-GST. Test compounds were diluted using 10 mM stock solution. The range of the final compound concentrations used in this test was from 0.3 nM to 30 μM (logarithmic scale). DMSO content of the samples was kept at 1%. The assay was equilibrated for 2 hours in the dark at room temperature in 384 well plates (Falcon). The signal was detected by an Ultra384 reader (TECAN). […] Compounds that promote coactivator displacement induce a concentration-dependent decrease in time-resolved fluorescent signal. Data were collected and analyzed using GraphPad Prism software (GraphPad Software V5.02, San Diego California USA). IC50 in μM and Emax in % were reported for each compound.

[2] = cited from earlier work

Row | IC50 (human RORγt) [nM] | IC50 [1] [nM] | SMILES | reduction in the Psoriasis Area Severity Index (PASI) score relative to placebo ([2]; 350 mg dose group) [%] | placebo-adjusted PASI score reduction ([2]; 700 mg dose group) [%] | plasma IL-17 levels relative to placebo ([2]; patients with moderate to severe psoriasis)
1 | 100 to 1000 | < 100 | CC(=O)N1CCN(c2cncc(CC(=O)NC(c3ccc(C)o3)c3ccc(C)cc3N3CCCCC3)c2)CC1 (stereo not shown) [Cpd.14, 2-[5-(4-acetylpiperazin-1-yl)pyridin-3-yl]-N-{[4-methyl-2-(piperidin-1-yl)phenyl](5-methylfuran-2-yl)methyl}acetamide] |  |  | 
2 | < 100 | < 100 | CC(=O)N1CCN(c2ncc(C3(C(=O)NC(c4ccc(C)o4)c4ccc(C)cc4N4CCCCC4)CC3)cn2)CC1 (stereo not shown) [Cpd.11, 1-[2-(4-acetylpiperazin-1-yl)pyrimidin-5-yl]-N-{[4-methyl-2-(piperidin-1-yl)phenyl](5-methylfuran-2-yl)methyl}cyclopropane-1-carboxamide] |  |  | 
3 | 100 to 1000 | < 100 | Cc1ccc(C(NC(=O)Cc2ccc(N3CCNCC3)nc2)c2ccc(C)o2)c(N2CCCCC2)c1 (stereo not shown) [Cpd.10, N-{[4-methyl-2-(piperidin-1-yl)phenyl](5-methylfuran-2-yl)methyl}-2-[6-(piperazin-1-yl)pyridin-3-yl]acetamide] |  |  | 
4 | 100 to 1000 | < 100 | Cc1ccc(C(NC(=O)Cc2cnc(N3CCN(S(C)(=O)=O)CC3)nc2)c2ccc(C)o2)c(N2CCCCC2)c1 (stereo not shown) [Cpd.4, 2-[2-(4-methanesulfonylpiperazin-1-yl)pyrimidin-5-yl]-N-{[4-methyl-2-(piperidin-1-yl)phenyl](5-methylfuran-2-yl)methyl}acetamide] |  |  | 
5 | 100 to 1000 | 100 to 1000 | Cc1ccc(C(NC(=O)Cc2cccc(N3CCN(C(=O)C(F)(F)F)CC3)n2)c2ccc(C)o2)c(N2CCCCC2)c1 (stereo not shown) [Cpd.16, N-{[4-methyl-2-(piperidin-1-yl)phenyl](5-methylfuran-2-yl)methyl}-2-{6-[4-(trifluoroacetyl)piperazin-1-yl]pyridin-2-yl}acetamide] |  |  | 
6 | 100 to 1000 | < 100 | CC(=O)N1CCN(c2ncc(CC(=O)NC(c3ccc(C)o3)c3ccc(C)cc3N3CCCCC3)cn2)CC1 (stereo not shown) [Cpd.13, 2-[2-(4-acetylpiperazin-1-yl)pyrimidin-5-yl]-N-{[4-methyl-2-(piperidin-1-yl)phenyl](5-methylfuran-2-yl)methyl}acetamide] |  |  | 
7 | 100 to 1000 | 100 to 1000 | Cc1ccc(C(NC(=O)Cc2ccc(N3CCN(C(=O)OC(C)(C)C)CC3)nc2)c2ccc(C)o2)c(N2CCCCC2)c1 (stereo not shown) [Cpd.3, tert-butyl 4-{5-[({[4-methyl-2-(piperidin-1-yl)phenyl](5-methylfuran-2-yl)methyl}carbamoyl)methyl]pyridin-2-yl}piperazine-1-carboxylate] |  |  | 
8 | 100 to 1000 | < 100 | Cc1ccc(C(NC(=O)Cc2ccc(N3CCC(S(C)(=O)=O)CC3)nc2)c2ccc(C)o2)c(N2CCCCC2)c1 (stereo not shown) [Cpd.2, 2-[6-(4-methanesulfonylpiperidin-1-yl)pyridin-3-yl]-N-{[4-methyl-2-(piperidin-1-yl)phenyl](5-methylfuran-2-yl)methyl}acetamide] |  |  | 
9 | 100 to 1000 | < 100 | Cc1ccc(C(NC(=O)Cc2cnc(N3CCC(S(C)(=O)=O)CC3)nc2)c2ccc(C)o2)c(N2CCCCC2)c1 (stereo not shown) [Cpd.5, 2-[2-(4-methanesulfonylpiperidin-1-yl)pyrimidin-5-yl]-N-{[4-methyl-2-(piperidin-1-yl)phenyl](5-methylfuran-2-yl)methyl}acetamide] |  |  | 
10 | 1000 to 10000 | 100 to 1000 | COC(=O)C1CCN(c2ncc(CC(=O)NC(c3ccc(C)o3)c3ccc(C)cc3N3CCCCC3)cn2)CC1 (stereo not shown) [Cpd.7, methyl 1-{5-[({[4-methyl-2-(piperidin-1-yl)phenyl](5-methylfuran-2-yl)methyl}carbamoyl)methyl]pyrimidin-2-yl}piperidine-4-carboxylate] |  |  | 
11 | < 100 | < 100 | Cc1ccc(C(NC(=O)Cc2cnc(N3CCCC(S(C)(=O)=O)C3)nc2)c2ccc(C)o2)c(N2CCCCC2)c1 (stereo not shown) [Cpd.17, 2-[2-(3-methanesulfonylpiperidin-1-yl)pyrimidin-5-yl]-N-{[4-methyl-2-(piperidin-1-yl)phenyl](5-methylfuran-2-yl)methyl}acetamide] |  |  | 
12 | 100 to 1000 | < 100 | Cc1ccc(C(NC(=O)Cc2ccc(N3CCN(S(C)(=O)=O)CC3)nc2)c2ccc(C)o2)c(N2CCCCC2)c1 (stereo not shown) [Cpd.1, 2-[6-(4-methanesulfonylpiperazin-1-yl)pyridin-3-yl]-N-{[4-methyl-2-(piperidin-1-yl)phenyl](5-methylfuran-2-yl)methyl}acetamide] |  |  | 
13 | 100 to 1000 | < 100 | CC(=O)N1CCN(c2nccc(CC(=O)NC(c3ccc(C)o3)c3ccc(C)cc3N3CCCCC3)n2)CC1 (stereo not shown) [Cpd.15, 2-[2-(4-acetylpiperazin-1-yl)pyrimidin-4-yl]-N-{[4-methyl-2-(piperidin-1-yl)phenyl](5-methylfuran-2-yl)methyl}acetamide] |  |  | 
14 | 1000 to 10000 | < 100 | Cc1ccc(C(NC(=O)Cc2cnc(N3CCC(C(=O)O)CC3)nc2)c2ccc(C)o2)c(N2CCCCC2)c1 (stereo not shown) [Cpd.9, 1-{5-[({[4-methyl-2-(piperidin-1-yl)phenyl](5-methylfuran-2-yl)methyl}carbamoyl)methyl]pyrimidin-2-yl}piperidine-4-carboxylic acid] |  |  | 
15 | 1000 to 10000 | 100 to 1000 | CC(=O)C1CCN(c2ncc(CC(=O)NC(c3ccc(C)o3)c3ccc(C)cc3C)cn2)CC1 (stereo not shown) [Cpd.6, 2-[2-(4-acetylpiperidin-1-yl)pyrimidin-5-yl]-N-[(2,4-dimethylphenyl)(5-methylfuran-2-yl)methyl]acetamide] |  |  | 
16 | 100 to 1000 | 100 to 1000 | CC(=O)C1CCN(c2ncc(CC(=O)NC(c3ccc(C)o3)c3ccc(C)cc3N3CCCCC3)cn2)CC1 (stereo not shown) [Cpd.8, 2-[2-(4-acetylpiperidin-1-yl)pyrimidin-5-yl]-N-{[4-methyl-2-(piperidin-1-yl)phenyl](5-methylfuran-2-yl)methyl}acetamide] |  |  | 
17 |  |  | CCS(=O)(=O)c1ccc(CNC(=O)c2cnc3c(c2)CN(C[C@H]2CC[C@H](C(F)(F)F)CC2)[C@H]3C(C)C)nc1 [VTP-43742] | 24 | 30 | reduced
18 | < 100 | < 100 | CC(=O)N1CCN(c2cccc(CC(=O)NC(c3ccc(C)o3)c3ccc(C)cc3N3CCCCC3)n2)CC1 (stereo not shown) [Cpd.12, 2-[6-(4-acetylpiperazin-1-yl)pyridin-2-yl]-N-{[4-methyl-2-(piperidin-1-yl)phenyl](5-methylfuran-2-yl)methyl}acetamide] |  |  | 
